Measurements as given in patent US4390528A, “Tuftsinyl-tuftsin” (Research Corporation, priority 1981, dated 1983).
Where a SMILES comes first, the peptide text is derived from it. Where no end group is shown, it is not given here.

Assays:
[1] = tested on: blood polymorphonuclear leucocytes; conditions: especially neutrophilic leucocytes, in mammals, known for some time; cited from earlier work
[2] = tested on: therapeutic action of tuftsin; assay: Inhibition of the therapeutic action of tuftsin; conditions: tripeptide formed by degradation of administered tuftsin
Description: Thus, if large amounts of tuftsin are administered, for example, parenterally a rather complex series of reactions takes place. One is the desired therapeutically useful reaction, another is the formation of the inhibitory tripeptide and the third is the inhibitory reaction. The rate of the last two reactions is, unfortunately, so high that the administration of higher doses of the therapeutic agent is counterproductive. As more is administered, more of the inhibitory tripeptide is produced and less of the tuftsin is available to fulfill its therapeutic purpose.

[3] = tested on: blood polymorphonuclear leucocytes; assay: Stimulation of phagocytosis and pinocytosis; type: cell-based, mammals
Text: It also stimulates pinocytosis to the same extent allowing the cells to obtain nourishment from the surrounding medium.

[4] = tested on: Cloudman S-91 mouse melanoma cells; assay: Antineoplastic activity against Cloudman S-91 mouse melanoma cells
[5] = tested on: L1210 mouse leukemia cells; assay: Antineoplastic activity against L1210 mouse leukemia cells
316 mouse melanoma cells = assay: Antineoplastic activity against 316 mouse melanoma cells
L1210 cells = assay: Survival of DBA/2 mice injected intraperitoneally with L1210 cells; type: in vivo, mouse; conditions: 25 DBA/2 mice, 20 μg intraperitoneally on days -7, -4 and 0; L1210 cells i.p. on day 0; control animals all dead by day 18
Description: In one experiment, 25 DBA/2 mice were injected each with 20 μg of the octapeptide intraperitoneally on days -7, -4 and 0. On the last mentioned day, L1210 cells were also injected intraperitoneally in experimental animals and solvent buffer alone in 25 control mice. The animals were observed daily and deaths recorded. The control animals were all dead by day 18, whereas the treated mice survived 32 days.

L-threonyl-L-lysyl-L-propyl-L-arginine [tuftsin]
stimulation of phagocytosis and destruction of bacteria by leucocytes [1]: has the ability to stimulate phagocytosis

N=C(N)NCCC[C@H](NC(=O)[C@@H]1CCCN1C(=O)[C@@H](N)CCCCN)C(=O)O [lysyl-prolyl-arginine] (H-Lys-Pro-Arg-OH)
effect on the therapeutic action of tuftsin [2]: acts as an inhibitor

TKPRTKPR [Tuftsinyl-tuftsin, L-Threonyl-L-Lysyl-L-Prolyl-L-Arginyl-L-Threonyl-L-Lysyl-L-Prolyl-L-Arginine]
stimulation of phagocytosis and pinocytosis [3]: stimulator of phagocytosis and pinocytosis | antineoplastic activity [4]: manifests antineoplastic activity | antineoplastic activity [5]: manifests antineoplastic activity | antineoplastic activity (316 mouse melanoma cells): manifests antineoplastic activity | survival of treated mice (L1210 cells): 32 days
